Laboratory results from paper PMC10702189, “Tetrazine Glycoconjugate for Pretargeted Positron Emission Tomography Imaging of trans-Cyclooctene-Functionalized Molecular Spherical Nucleic Acids” (ACS Omega, 2023).

How the values were obtained:
[1] = Ex vivo biodistribution in healthy Balb/cAnNrj mice
Description: (§1) Animal studies were approved by the national Project Authorization Board in Finland (licenses: ESAVI/12132/04.10.07/2017 and ESAVI/8648/2020) and were carried out in compliance with EU Directive 2010/EU/63 on the protection of animals used for scientific purposes. Healthy female Balb/cAnNrj mice (9–14 weeks old, 19 weeks old for fasting studies) were used for experiments with [^18F]FDG-Tz. Female Rj:Athymic-Foxn1^nu/nu mice (8–10 weeks old) bearing subcutaneous HER2-expressing HCC1954 tumors were used for pretargeted and control preclicked experiments with [^18F]TCO-MSNA, detailed information for the mice preparation was described earlier.[59] Animals were housed in individually ventilated cages under a 12 h light/dark cycle with ad libitum access to water and food unless otherwise stated. Animals were anesthetized with isoflurane (induction 4–5%, maintenance 1.5–2.5%, 0.4 L/min O2) and sacrificed by cervical dislocation after applying cardiac puncture for blood collection.
For [^18F]FDG-Tz ex vivo evaluation, the mice were sacrificed at 15 (n = 6), 30 (n = 4), and 60 min (n = 2) postinjection. [^18F]FDG-Tz distribution at 15 min postinjection was also studied in animals after fasting (n = 3, 4 h fasting prior to injection, water available ad libitum). Radiolabeled compound was administrated via the tail vein (1.8–11.4 MBq in 50–170 μL). For all experiments involving MSNA ex vivo measurements were performed after 60 min PET/CT imaging.
After sacrifice, tissue samples from organs of interest were dissected and weighed. Radioactivity was measured with a gamma counter (Triathler 3″; Hidex, Turku, Finland); the percentage injected radioactivity dose per gram of tissue (%ID/g) was calculated, corrected with the remaining radioactivity in the cannula, tail, and the syringe and decay-corrected to the time of injection.

[2] = test system: HER2-expressing HCC1954 tumors; experiment: PET/CT imaging (pretargeted, preclicked, tracer alone) in HCC1954 tumor-bearing mice; type: in vivo; conditions: HCC1954 tumor-bearing female mice, 60 min postinjection
Description: as §1, with “collection. […]” for “collection.”
Image analysis was performed with Carimas software (version 2.10, Turku PET Centre, Turku, Finland). CT scans were utilized as an anatomical reference combined with the radioactivity signal from PET images. […] Standardized uptake values (SUV) were calculated, corrected with the remaining radioactivity in the cannula, tail, and syringe, and decay-corrected to the time of injection. […]

[3] = Radioactivity distribution in blood components after i.v. injection in healthy mice; type: in vivo; conditions: for Proportion of intact tracer in plasma: radio-HPLC
Description: To measure the radioactivity binding to blood cells, the blood obtained by cardiac puncture was placed into a lithium heparin tube, mixed according to the manufacturer’s instructions, and placed on ice. The blood sample was centrifuged at 4 °C for 5 min at 2118 × g. The plasma was separated by pipetting, and blood cells and plasma radioactivities were measured with a 1480 Wizard gamma counter (PerkinElmer/Wallac, Turku, Finland).
To determine the radioactivity portion bound to plasma proteins, plasma was mixed with an equal volume of acetonitrile and centrifuged at 14000 × g for 2 min at r.t. The radioactivity of both the supernatant and the protein pellet was measured with Wizard.
To determine the portion of intact tracer in plasma, a sample of deproteinized plasma supernatant was diluted with 0.1% TFA in water and analyzed with radio-HPLC.[60]

[4] = In vivo dynamic PET/CT imaging in healthy Balb/cAnNrj mice; conditions: dynamic PET
Description: as §1
For in vivo [^18F]FDG-Tz studies, four mice were injected with 4.0–4.8 MBq in 50–80 μL volume via the tail vein. Animals were imaged with Molecubes β-cube (PET) and X-cube (CT) (MOLECUBES NV, Ghent, Belgium) for 60 min and reconstructed into time frames 30 × 10, 15 × 60, 4 × 300 s, and 2 × 600 s. For pretargeted experiments as well as control imaging with preclicked [^18F]TCO-MSNA, Inveon Multimodality PET/CT (Siemens Medical Solutions, Knoxville, TN, USA) was used to perform dynamic PET with 6 × 10, 4 × 60, and 11 × 300 s time frames. For pretargeted imaging, TCO-MSNA (50 μL, 2.5 nmol of TCO) was injected 20 min prior to [^18F]FDG-Tz (63 ± 17 μL) administration via the tail vein. For all experiments two animals were imaged at the same time under isoflurane anesthesia. Mice were sacrificed immediately after imaging for ex vivo evaluation.
Image analysis was performed with Carimas software (version 2.10, Turku PET Centre, Turku, Finland). CT scans were utilized as an anatomical reference combined with the radioactivity signal from PET images. Regions of interest (ROIs) within the selected organs were defined in three dimensions. Blood pool results were obtained from the heart left ventricle cavity; tumor ROIs were drawn excluding the fluid-filled tumor core (Figure S13). Standardized uptake values (SUV) were calculated, corrected with the remaining radioactivity in the cannula, tail, and syringe, and decay-corrected to the time of injection.

## O=C(CCON=C[C@H]([18F])[C@@H](O)[C@H](O)[C@H](O)CO)NCc1ccc(-c2nncnn2)cc1 [[^18F]FDG-Tz]
[1]; 15 min postinjection, 4 h fasting
  Biodistribution difference between fasted and nonfasted animals: no statistically significant difference
[1]; 60 min after i.v. injection
  Organ accumulation in awake versus isoflurane anesthetized animals: trend of lower accumulation
[1]; i.v., 60 min postinjection
  Blood radioactivity: 0.9 ± 0.3 %ID/g
  Brain uptake: 0.08 ± 0.03 %ID/g
  Gallbladder radioactivity: 7.0 ± 0.7 %ID/g
  Kidneys radioactivity: 1.2 ± 0.4 %ID/g
  Liver radioactivity: 3.2 ± 1.0 %ID/g
  Tibia bone radioactivity (defluorination): 0.26 ± 0.04 %ID/g
[2]
  Tumor SUV: 0.16 ± 0.04 SUV
[3]; 15 min postinjection
  Blood cell binding of radioactivity: 37.6% ± 3.0
  Plasma protein binding of radioactivity: 9.1% ± 3.5
[3]; 60 min postinjection
  Blood cell binding of radioactivity: 58.1%
  Plasma protein binding of radioactivity: 22.7%
  Proportion of intact tracer in plasma: 52%
[3]; first time point (15 min, n = 3)
  Proportion of intact tracer in plasma: 93.7% ± 5.1
[4]; 0.6 min
  Heart SUV: 5.06 ± 4.25 SUV
[4]; 0.8 min
  Blood SUV: 5.26 ± 2.69 SUV
  Brain SUVpeak: 0.33 ± 0.20 SUV
[4]; 4.5 min
  Liver SUV: 5.63 ± 1.11 SUV
[4]; 60 min
  Blood SUV: 0.43 ± 0.06 SUV
  Brain SUV: 0.05 ± 0.01 SUV
  Heart SUV: 0.41 ± 0.05 SUV
  Liver SUV: 2.00 ± 0.57 SUV
